The target in this assay is T1, human mAChR M1 (Homo sapiens, UniProt P11229).
T1 construct: hM1 and hM4 cDNAs were purchased from Missouri S&T cDNA Resource; host or cells: CHO-K1 cells, stably transfected with Lipofectamine2000
T1 sequence (P11229 1-460): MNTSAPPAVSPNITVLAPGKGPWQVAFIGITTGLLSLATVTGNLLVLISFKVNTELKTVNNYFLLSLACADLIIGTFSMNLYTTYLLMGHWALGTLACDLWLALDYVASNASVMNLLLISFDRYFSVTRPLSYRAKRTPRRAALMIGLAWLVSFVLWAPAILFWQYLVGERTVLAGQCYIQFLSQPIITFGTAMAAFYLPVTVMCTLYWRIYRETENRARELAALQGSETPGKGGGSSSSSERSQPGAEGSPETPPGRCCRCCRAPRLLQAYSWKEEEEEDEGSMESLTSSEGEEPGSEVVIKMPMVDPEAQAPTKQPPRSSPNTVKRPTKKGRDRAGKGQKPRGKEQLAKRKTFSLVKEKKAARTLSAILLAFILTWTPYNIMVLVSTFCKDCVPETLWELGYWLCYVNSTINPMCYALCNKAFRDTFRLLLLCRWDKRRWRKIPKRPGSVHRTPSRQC
Nature of the assay: mAChR M1 cell-based functional assay (calcium mobilization, PAM mode, EC20 acetylcholine). The conditions noted are these: CHO-K1 cells expressing hM1, calcium flux (Fluo-4); for Emax: EC20 acetylcholine response; for EC50: concentration-dependent increase in the EC20 acetylcholine response. An excerpt:
Chinese hamster ovary (CHO-K1) cells stably expressing rat (r)M1 were purchased from the American Type Culture Collection and cultured according to their indicated protocol. CHO cells stably expressing human (h)M2, hM3, and hM5 were described previously (Levey, et al., 1991); hM1 and hM4 cDNAs were purchased from Missouri S&T cDNA Resource; rM4 cDNA was provided by T. I. Bonner (National Institutes of Health, Bethesda, Md.). rM2 and rM3 were cloned from a rat brain cDNA library and sequence verified. hM1, rM2, rM3, hM4, and rM4 cDNAs were used to stably transfect CHO-K1 cells purchased from the American Type Culture Collection using Lipofectamine2000. To make stable rM2, hM2, rM3, hM4, and rM4 cell lines for use in calcium mobilization assays, these cells also were stably transfected with a chimeric G-protein (Gqi5) (provided by B. R. Conklin, University of California, San Francisco) using Lipofectamine 2000. rM1, hM1, rM3, hM3, rM5, and hM5 cells were grown in Ham's F-12 medium containing 10% heat-inactivated fetal bovine serum (FBS), 20 mM HEPES, and 50 µg/mL G418 sulfate. rM2-Gqi5, hM2-Gqi5, and hM4-Gqi5 cells were grown in the same medium also containing 500 μg/mL Hygromycin B. Stable rM4-Gqi5 cells were grown in DMEM containing 10% heat-inactivated FBS, 20 mM HEPES, 400 μg/mL G418 sulfate, and 500 μg/mL Hygromycin B.
For high throughput measurement of agonist-evoked increases in intracellular calcium, CHO-K1 cells stably expressing muscarinic receptors were plated in growth medium lacking G418 and hygromycin at 15,000 cells/20 μL/well in Greiner 384-well black-walled, tissue culture (TC)-treated, clear-bottom plates (VWR). Cells were incubated overnight at 37° C. and 5% CO2. The next day, cells were washed using an ELX 405 (BioTek) with four washes (80 μL) of assay buffer then aspirated to 20 μL. Next, 20 μL of 16 μM Fluo-4/acetoxymethyl ester (Invitrogen, Carlsbad, Calif.) prepared as a 2.3 mM stock in DMSO and mixed in a 1:1 ratio with 10% (w/v) Pluronic F-127 and diluted in assay buffer was added to the wells and the cell plates were incubated for 50 min at 37° C. and 5% CO2. Dye was removed by washing with the ELX 405 (four 80 μL washes of assay buffer) then aspirated to 20 μL. Compound master plates were formatted in an 11 point CRC format (1:3 dilutions) in 100% DMSO with a starting concentration of 10 mM using the BRAVO liquid handler (Agilent). Test compound CRCs were then transferred to daughter plates (240 nL) using the Echo acoustic plate reformatter (Labcyte, Sunnyvale, Calif.) and then diluted into assay buffer (40 μL) to a 2× stock using a Thermo Fisher Combi (Thermo Fisher Scientific, Waltham, Mass.).
Calcium flux was measured using the Functional Drug Screening System (FDSS) 6000 (Hamamatsu Corporation, Tokyo, Japan) as an increase in the fluorescent static ratio. Compounds were applied to cells (20 μL, 2×) using the automated system of the FDSS 6000 at 4 s into the 300 s protocol and the data were collected at 1 Hz. […] Agonist activity was analyzed as a concentration-dependent increase in calcium mobilization upon compound addition. Emax values for agonist activity are expressed relative to the maximum for acetylcholine. Positive allosteric modulator activity was analyzed as a concentration-dependent increase in the EC20 acetylcholine response. Antagonist activity was analyzed as a concentration-dependent decrease in the […] acetylcholine response. Concentration-response curves were generated using a four-parameter logistical equation in XLfit curve fitting software (IDBS, Bridgewater, N.J.) for Excel (Microsoft, Redmond, Wash.) or Prism (GraphPad Software, Inc., San Diego, Calif.).
Activity (EC50 and Emax) was determined in the mAChR M1 cell-based functional assay as described above and the data are shown in Table 2. The compound numbers correspond to the compound numbers used in Table 1.

The values below come from patent publication US20200131159A1, “POSITIVE ALLOSTERIC MODULATORS OF THE MUSCARINIC ACETYLCHOLINE RECEPTOR M1” (Vanderbilt University, priority 2018, published 2020).

Molecules are shown by their SMILES.

Usually Emax stands for the greatest response seen or fitted, relative to the assay's reference. Regarding `Cn1ccc(-c2ccc(Cc3cc(C(=O)N[C@H]4CC[C@@H]4O)c4ncccc4c3)cn2)n1` [compound 13, N-[(1S,2S)-2-hydroxycyclobutyl]-6-[[6-(1-methylpyrazol-3-yl)-3-pyridyl]methyl]quinoline-8-carboxamide], the Emax was found to be 75%. For orientation: EC50 means the concentration needed to bring the measured effect to its halfway point. As for `Cn1ccc(-c2ccc(Cc3cc(C(=O)NC4CC5(COC5)C4)c4ncccc4c3)cn2)n1` [compound 14, 6-[[6-(1-methylpyrazol-3-yl)-3-pyridyl]methyl]-N-(2-oxaspiro[3.3]heptan-6-yl)quinoline-8-carboxamide], the Emax came to 73% and the concentration giving a half-maximal response (EC50) came to 5.29 µM. On to `Cn1ccc(-c2ccc(Cc3cc(C(=O)NC4CCOCC4)c4ncccc4c3)cn2)n1` [compound 15, 6-[[6-(1-methylpyrazol-3-yl)-3-pyridyl]methyl]-N-tetrahydropyran-4-yl-quinoline-8-carboxamide], for which the Emax was found to be 66%.

Turning to `Cc1nc(-c2ccc(Cc3cc(C(=O)N[C@H]4CCOC[C@@H]4O)c4ncccc4c3)cc2)co1` [compound 16, N-[(3R,4S)-3-hydroxytetrahydropyran-4-yl]-6-[[4-(2-methyloxazol-4-yl)phenyl]methyl]quinoline-8-carboxamide], the Emax came out at 86% and the EC50 turned out to be 0.438 µM. The matching figures for `Cc1nc(-c2ccc(Cc3cc(C(=O)N[C@H]4CCCCC[C@@H]4O)c4ncccc4c3)cc2)co1` [compound 17, N-[(1S,2S)-2-hydroxycycloheptyl]-6-[[4-(2-methyloxazol-4-yl)phenyl]methyl]quinoline-8-carboxamide]: 65% and 1.82 µM.

For `Cc1nc(-c2ccc(Cc3cc(C(=O)N[C@H]4CCCC[C@@H]4O)c4ncccc4c3)cc2)co1` [compound 18, N-[(1S,2S)-2-hydroxycyclohexyl]-6-[[4-(2-methyloxazol-4-yl)phenyl]methyl]quinoline-8-carboxamide], the maximal response (Emax) turned out to be 82% and the EC50 worked out at 0.784 µM. The matching figures for `Cc1nc(-c2ccc(Cc3cc(C(=O)N[C@H]4CCC[C@@H]4O)c4ncccc4c3)cc2)co1` [compound 19, N-[(1S,2S)-2-hydroxycyclopentyl]-6-[[4-(2-methyloxazol-4-yl)phenyl]methyl]quinoline-8-carboxamide]: 61% and 2.17 µM. On the same counts, the results for `Cc1nc(-c2ccc(Cc3cc(C(=O)NC4CC5(COC5)C4)c4ncccc4c3)cc2)co1` [compound 20, 6-[[4-(2-methyloxazol-4-yl)phenyl]methyl]-N-(2-oxaspiro[3.3]heptan-6-yl)quinoline-8-carboxamide] are 48% and 4.36 µM. Consider `Cn1cc2c(-c3cc(F)c(Cc4cc(C(=O)N[C@H]5CCOC[C@@H]5O)c5ncccc5c4)c(F)c3)cccc2n1` [compound 21, 6-[[2,6-difluoro-4-(2-methylindazol-4-yl)phenyl]methyl]-N-[(3R,4S)-3-hydroxytetrahydropyran-4-yl]quinoline-8-carboxamide], for which the Emax amounted to 67% and the EC50 was 3.14 µM. In the case of `Cn1cc2c(-c3cc(F)c(Cc4cc(C(=O)N[C@H]5CCCC[C@@H]5O)c5ncccc5c4)c(F)c3)cccc2n1` [compound 22, 6-[[2,6-difluoro-4-(2-methylindazol-4-yl)phenyl]methyl]-N-[(1S,2S)-2-hydroxycyclohexyl]quinoline-8-carboxamide], the Emax worked out at 42% and the EC50 is 5.71 µM. Turning to `Cc1c(Cc2ccc(-n3cccn3)cc2)cc(C(=O)N[C@H]2CCOC[C@@H]2O)c2ncccc12` [compound 23, N-[(3R,4S)-3-hydroxytetrahydropyran-4-yl]-5-methyl-6-[(4-pyrazol-1-ylphenyl)methyl]quinoline-8-carboxamide], the Emax was found to be 77% and the EC50 was 0.108 µM. For the compound `Cc1c(Cc2ccc(-n3cccn3)cc2)cc(C(=O)N[C@H]2CCCCC[C@@H]2O)c2ncccc12` [compound 24, N-[(1S,2S)-2-hydroxycycloheptyl]-5-methyl-6-[(4-pyrazol-1-ylphenyl)methyl]quinoline-8-carboxamide], the Emax came to 66%. With `Cc1c(Cc2ccc(-n3cccn3)cc2)cc(C(=O)N[C@H]2CCCC[C@@H]2O)c2ncccc12` [compound 25, N-[(1S,2S)-2-hydroxycyclohexyl]-5-methyl-6-[(4-pyrazol-1-ylphenyl)methyl]quinoline-8-carboxamide], the Emax amounted to 81% and the 50% effective concentration (EC50) was 0.386 µM. The matching figures for `Cc1c(Cc2ccc(-n3cccn3)cc2)cc(C(=O)N[C@H]2CCC[C@@H]2O)c2ncccc12` [compound 26, N-[(1S,2S)-2-hydroxycyclopentyl]-5-methyl-6-[(4-pyrazol-1-ylphenyl)methyl]quinoline-8-carboxamide]: 81% and 0.958 µM. As for `Cc1c(Cc2ccc(-n3cccn3)cc2)cc(C(=O)N[C@H]2CC[C@@H]2O)c2ncccc12` [compound 27, N-[(1S,2S)-2-hydroxycyclobutyl]-5-methyl-6-[(4-pyrazol-1-ylphenyl)methyl]quinoline-8-carboxamide], the Emax came to 73% and the EC50 came out at 1.71 µM. On the same counts, the results for `Cc1c(Cc2ccc(-n3cccn3)cc2)cc(C(=O)NC2CCOCC2)c2ncccc12` [compound 28, 5-methyl-6-[(4-pyrazol-1-ylphenyl)methyl]-N-tetrahydropyran-4-yl-quinoline-8-carboxamide] are 41% and 2.25 µM. On the same counts, the results for `Cc1c(Cc2ccc(-c3ccn(C)n3)nc2)cc(C(=O)N[C@H]2CCOC[C@@H]2O)c2ncccc12` [compound 29, N-[(3R,4S)-3-hydroxytetrahydropyran-4-yl]-5-methyl-6-[[6-(1-methylpyrazol-3-yl)-3-pyridyl]methyl]quinoline-8-carboxamide] are 72% and 0.197 µM.

For the compound `Cc1c(Cc2ccc(-c3ccn(C)n3)nc2)cc(C(=O)N[C@H]2CCCC[C@@H]2O)c2ncccc12` [compound 30, N-[(1S,2S)-2-hydroxycyclohexyl]-5-methyl-6-[[6-(1-methylpyrazol-3-yl)-3-pyridyl]methyl]quinoline-8-carboxamide], the Emax came to 72% and the EC50 is 0.356 µM. For `Cc1c(Cc2ccc(-c3ccn(C)n3)nc2)cc(C(=O)NC2CCOCC2)c2ncccc12` [compound 31, 5-methyl-6-[[6-(1-methylpyrazol-3-yl)-3-pyridyl]methyl]-N-tetrahydropyran-4-yl-quinoline-8-carboxamide], the Emax is 67% and the EC50 turned out to be 4.39 µM.
